Measurements published in patent US20240261418A1, “SOS1 DEGRADING AGENT AND PREPARATION METHOD THEREFOR AND APPLICATION THEREOF” (SHANGHAI LEADINGTAC PHARMACEUTICAL CO. LTD., priority 2021, published 2024).

Test system: KRAS G12D mutant human metastatic pancreatic adenocarcinoma cells AsPC-1
Test: 3D cell proliferation inhibition assay, AsPC-1
Format: cell-based
Details: ASPC1, 168 h, 7 days, CTG
Description: Test Example 4: 3D Cell Proliferation Inhibition Assay
The inhibitory effect of the compounds on the proliferation of 3D cells was investigated on KRAS G12C mutant human non-small cell lung cancer cells NCI-H358 (ATCC or Stem Cell Bank, Chinese Academy of Sciences), KRAS G12D mutant human metastatic pancreatic adenocarcinoma cells AsPC-1 (ATCC), KRAS G12V mutant human lung adenocarcinoma cells NCI-H441 (ATCC), and KRAS G13D mutant human colorectal adenocarcinoma epithelial cells DLD-1 (ATCC). The specific procedures were as follows:
200 nL of compound solution diluted in a gradient was added to corresponding microwells of a 384-well low-adsorption microwell plate (Corning, 3657) using an Echo sonic pipetting system (Labcyte, Echo 550), so that the final concentration of the test compound in the reaction system was in a range of 20000 nM-0.008 nM. Then 40 μL of cells at a certain density were added to the corresponding microplate. In addition to test wells for the test compounds, both a DMSO control well and a medium control well were set, with the DMSO control well containing DMSO and cells and the medium well containing only medium. […] The plate was incubated at room temperature for 30 min and read on a microplate reader EnVision using the chemiluminescence program. […]

IC50 [nM] | Compound
100 to 1000 | COc1cc2nc(C)nc(N[C@H](C)c3cc(-c4c(Cl)cccc4CN(C)C)cs3)c2cc1[C@H]1CC[C@H](C(=O)N2CCC(CCOCC3CCN(C(=O)c4ccc(Cl)c(N5CCC(=O)NC5=O)c4)CC3)CC2)CC1 [Example 5, 1-(2-chloro-5-(4-((2-(1-((1R,4R)-4-(4-(((R)-1-(4-(2-chloro-6-((dimethylamino)methyl)phenyl)thien-2-yl)ethyl)amino)-7-methoxy-2-methylquinazolin-6-yl)cyclohexane-1-carbonyl)piperidin-4-yl)ethoxy)methyl)piperidine-1-carbonyl)phenyl)dihydropyrimidine-2,4(1H,3H)-dione]
15 to 30 | COc1cc2nc(C)nc(N[C@H](C)c3cc(-c4c(Cl)cccc4CN(C)C)cs3)c2cc1[C@H]1CC[C@H](C(=O)N2CCN(CC3CCC4(CC3)CCN(C(=O)c3ccc(Cl)c(N5CCC(=O)NC5=O)c3)CC4)CC2)CC1 [Example 1, 1-(2-chloro-5-(9-((4-((1R,4R)-4-(4-(((R)-1-(4-(2-chloro-6-((dimethylamino)methyl)phenyl)thien-2-yl)ethyl)amino)-7-methoxy-2-methylquinazolin-6-yl)cyclohexane-1-carbonyl)piperazin-1-yl)methyl)-3-azaspiro[5.5]undecane-3-carbonyl)phenyl)dihydropyrimidine-2,4(1H,3H)-dione]
